The term IC50 denotes the concentration at which inhibition is half-maximal.

In one assay the test system is transgenic mice that express both human CETP and human apolipoprotein A-1. Description: Assay of plasma lipids in vivo (elevation of HDL cholesterol). As to conditions: single oral dose 30 mg/kg; at 8 hr; serum HDL cholesterol relative to control. Here is the method:
Activity of compounds of this invention in vivo can be determined by the level of elevation of HDL cholesterol relative to control by a given amount of compound in a CETP-containing animal species. A strain of transgenic mice that express both human CETP and human apolipoprotein A-1 (Taconic, Germantown, N.Y.) is used to test compounds of this invention. Test compounds are administered once orally in selected aqueous or oil based vehicles. At various times after dosing, ranging from 4 h to 24 h, blood is obtained. Blood is allowed to clot and serum is obtained by centrifugation. HDL cholesterol levels in the serum is determined by HDL-C plus reagents (Roche/Hitachi, Indianapolis, Ind.) with a clinical chemistry analyzer (Roche/Hitachi, Indianapolis, Ind.). Additional serum lipids can be analyzed by enzymatic methods. Lipids in the VLDL, LDL and HDL fractions are analyzed by enzymatic methods after precipitation or size exclusion chromatography.
On to `CC(=O)N(Cc1cc(C(F)(F)F)cc(C(F)(F)F)c1)[C@H]1CCCN(C(=O)OC(C)(C)C)c2cc(C(F)(F)F)c(C)cc21` [Example 119, (S)-5-[Acetyl-(3,5-bis-trifluoromethyl-benzyl)-amino]-7-methyl-8-trifluoromethyl-2,3,4,5-tetrahydro-benzo[b]azepine-1-carboxylic acid tert-butyl ester], for which the “% HDL cholesterol increase” value is 123%.

For the next assay, the target named is T1, human CETP (Homo sapiens, UniProt P11597).
T1 construct: made in house; host or cells: AV-12 cells (engineered to express human CETP)
T1 sequence (P11597 18-493): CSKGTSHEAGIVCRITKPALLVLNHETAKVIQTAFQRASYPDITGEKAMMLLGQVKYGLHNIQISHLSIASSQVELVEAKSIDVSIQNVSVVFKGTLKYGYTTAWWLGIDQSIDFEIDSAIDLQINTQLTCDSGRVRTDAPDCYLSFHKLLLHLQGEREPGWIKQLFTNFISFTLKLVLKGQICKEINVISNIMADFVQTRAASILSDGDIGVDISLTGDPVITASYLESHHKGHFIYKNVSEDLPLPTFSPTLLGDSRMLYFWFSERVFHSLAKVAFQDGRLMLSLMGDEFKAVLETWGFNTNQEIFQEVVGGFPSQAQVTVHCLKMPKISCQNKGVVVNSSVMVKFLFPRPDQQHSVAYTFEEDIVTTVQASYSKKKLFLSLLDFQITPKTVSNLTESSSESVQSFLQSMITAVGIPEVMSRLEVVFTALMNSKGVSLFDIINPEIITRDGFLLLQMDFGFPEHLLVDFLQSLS
Kind of assay: In vitro CETP inhibitor assay: SPA assay. In kind it is biochemical. The settings on record: CETP produced by AV-12 cells expressing human CETP; [3H]cholesterol ester transfer from HDL to biotinylated LDL; 30-minute incubation at 37 C; HEPES-NaCl based buffer; read-out: Inhibition of CETP Activity (SPA assay) IC50. Here is the method: An in vitro scintillation proximity assay (SPA) has been used to test the ability of compounds of this invention to inhibit the transfer of radiolabeled cholesterol esters between HDL and LDL. This assay monitors the inhibition of the transfer of [^3H]cholesterol esters from HDL (Amersham) to biotinylated LDL (Amersham) by a CETP source. CETP produced by AV-12 cells that have been created to express human CETP has been used to mediate the transfer. After a 30-minute incubation at 37 C in which the radiolabeled cholesterol ester is transferred in a HEPES-NaCl based buffer, the reaction is stopped and the biotinylated LDL is bound to streptavidin/scintillant coated SPA beads (Amersham). Then the radioactive signal is measured in a Packard 96-well scintillation TopCounter with window settings fully open. Compounds of this invention can be added to the reaction mixture in an appropriate solvent to assess their ability to inhibit the transfer of the radiolabeled cholesterol esters by CETP, represented by a decrease in radioactive signal. The activity transferred in the reaction mixtures with control solvents is rated as 100% transfer. The compound concentration at which the activity is midway between 100% and the lowest recorded activity is indicated as the IC50 value. A three-parameter fixed top logistic curve-fitting algorithm is used to generate the IC50 value.
On to `CC(=O)N(Cc1cc(C(F)(F)F)cc(C(F)(F)F)c1)[C@H]1CCCN(C(=O)OC(C)C)c2cc(C(F)(F)F)c(C)cc21` [Example 111, (S)-5-[Acetyl-(3,5-bis-trifluoromethyl-benzyl)-amino]-7-methyl-8-trifluoromethyl-2,3,4,5-tetrahydro-benzo[b]azepine-1-carboxylic acid isopropyl ester], for which the IC50 is 0.068 µM.
The same measure, in the same setting: next, `CC(=O)N(Cc1cc(C(F)(F)F)cc(C(F)(F)F)c1)C1CCCN(C(=O)OC(C)C)c2ccccc21` (stereo not shown) [Example 1, 5-[Acetyl-(3,5-bis-trifluoromethyl-benzyl)-amino]-2,3,4,5-tetrahydro-benzo[b]azepine-1-carboxylic acid isopropyl ester]: 0.293 µM; `CC(=O)N(Cc1cc(C(F)(F)F)cc(C(F)(F)F)c1)C1CCCN(C(=O)OC(C)C)c2c1ccc1c2CCC1` (racemic) [Example 129, (+/−)-6-[Acetyl-(3,5-bis-trifluoromethyl-benzyl)-amino]-2,3,6,7,8,9-hexahydro-1H-10-aza-cyclohepta[e]indene-10-carboxylic acid isopropyl ester]: 0.054 µM; `CC(=O)N(Cc1cc(C(F)(F)F)cc(C(F)(F)F)c1)C1CCCN(C(=O)OC2CCCC2)c2cc(OC(F)(F)F)c(C)cc21` (stereo not shown) [Example 182, 5-[Acetyl-(3,5-bis-trifluoromethyl-benzyl)-amino]-7-methyl-8-trifluoromethoxy-2,3,4,5-tetrahydro-benzo[b]azepine-1-carboxylic acid cyclopentyl ester]: 0.191 µM.
Same read-out and setting: next, `CC(=O)N(Cc1cc(C(F)(F)F)cc(C(F)(F)F)c1)[C@H]1CCCN(C(=O)OC(C)(C)C)c2cc(C(F)(F)F)c(C)cc21` [Example 119, (S)-5-[Acetyl-(3,5-bis-trifluoromethyl-benzyl)-amino]-7-methyl-8-trifluoromethyl-2,3,4,5-tetrahydro-benzo[b]azepine-1-carboxylic acid tert-butyl ester]: 0.042 µM; `CC(=O)N(Cc1cc(C(F)(F)F)cc(C(F)(F)F)c1)C1CCCN(C(=O)OC(C)(C)C)c2cc(C(F)(F)F)c(C)cc21` (stereo not shown) [Example 117, 5-[Acetyl-(3,5-bis-trifluoromethyl-benzyl)-amino]-7-methyl-8-trifluoromethyl-2,3,4,5-tetrahydro-benzo[b]azepine-1-carboxylic acid tert-butyl ester]: 0.065 µM.

Source of the values: patent publication US7749992B2, “Compounds and methods for treating dislipidemia” (Eli Lilly and Company, priority 2003, dated 2010).
